Earlier results in US20240016871A1, “Non-toxic furocoumarin-rich plant extracts and related compositions for use as antimicrobial substance or medicament and other therapeutic uses” (ICE-P LIFE, S.L., priority 2020, published 2024).

Legend:
DBA/2 strain mice = settings: single oral doses
p53 knockout mouse = settings: platelets treated with amotosalen, after filtration and removal of amotosalen conjugated with pathogens

| SMILES | liver necrosis (DBA/2 strain mice) | carcinogenicity (p53 knockout mouse) |
| --- | --- | --- |
| O=c1ccc2ccccc2o1 [coumarin] | produce liver necrosis |  |
| Cc1oc2c(C)c3oc(=O)cc(C)c3cc2c1COCCN.Cl [amotosalen, amotosalen HCl] |  | non-carcinogenic |
